This is an account of results in article PMC4503722, “Novel Phenotypic Outcomes Identified for a Public Collection of Approved Drugs from a Publicly Accessible Panel of Assays” (PLoS ONE, 2015).

The structures appear in SMILES notation.

The target of assay [1] is T1, hJAK2 (Homo sapiens, UniProt O60674).
T1 construct: purchased Cerep (LANCE kinase assay platform, contract assay)
Briefly: Cerep LANCE kinase assay hJAK2 (S1 assay 33). It counts as biochemical. The note with it: for hJAK2 LANCE IC50/EC50: assay number 33.

Assay [2] concerns the target T2, hFLT3 (Homo sapiens, UniProt P36888).
T2 construct: purchased Cerep (LANCE kinase assay platform, contract assay)
Nature of the assay: Cerep LANCE kinase assay hFLT3 (S1 assay 35). The class given is biochemical. The note with it: for hFLT3 LANCE IC50/EC50: assay number 35. For orientation: Time-resolved FRET reads energy transfer from a long-lived donor to a nearby acceptor.

Assay [3] concerns nuclear β-catenin in C2C12 cells. Nature of the assay: cells. The class given is cell-based. The note with it: concentration response; for WntCondMedia_bCatenin C2C12 IC50/EC50: assay number 5.
In assay [4] the test system is STC-1 cell line. The class given is cell-based, mouse. The following applies: for mSTC-1 GLP1 Secretion IC50/EC50: assay number 13.
Assay [5] has as its system HeLa cells. Nature of the assay: cells. The class given is cell-based. The following applies: for Hela CellCycMod PI 2N IC50/EC50: assay number 14; for Hela CellCycMod PI S Phase IC50/EC50: assay number 15; for Hela CellCycMod PI 4N IC50/EC50: assay number 16; for Hela CellCycMod PI MI IC50/EC50: assay number 17; for Hela CellCycMod PI Cell Number IC50/EC50: assay number 18.

Assay [6] concerns alkaline phosphatase (ALP) activity in C2C12 cells. The class given is cell-based. The following applies: concentration response; for WntCondMedia_Alk Phos C2C12 IC50/EC50: assay number 6.
In assay [7] the test system is SNU-C1. Briefly: cells. The note with it: basal. It counts as cell-based.
The test system of assay [8] is NCI-H716 cells. Nature of the assay: cells. The class given is cell-based, Human. The note with it: for hNCI-H716 GLP1 Secretion IC50/EC50: assay number 12.
The test system of assay [9] is Colo320. Nature of the assay: cells. It counts as cell-based. The following applies: basal.
Assay [10] relates to DLD-1. Nature of the assay: cells. The following applies: basal. The class given is cell-based.
The target of assay [11] is T3, hp70S6K1 (RPS6KB1) (Homo sapiens, UniProt P23443).
T3 construct: purchased Cerep (LANCE kinase assay platform, contract assay)
Briefly: Cerep LANCE kinase assay hp70S6K1 (S1 assay 31). The class given is biochemical. The note with it: for hp70S6K1 LANCE IC50/EC50: assay number 31.

Assay [12] relates to RKO. Briefly: cells. It counts as cell-based. The following applies: basal.
The test system of assay [13] is HCT116. Nature of the assay: cells. The note with it: basal. The class given is cell-based.
The subject of assay [14] is HT-29. Briefly: cells. It counts as cell-based. The note with it: basal.
In assay [15] the target is T4, hGSK3b (Homo sapiens, UniProt P49841).
T4 construct: purchased Cerep (LANCE kinase assay platform, contract assay)
Nature of the assay: Cerep LANCE kinase assay hGSK3b (S1 assay 34). It counts as biochemical. The note with it: for hGSK3b LANCE IC50/EC50: assay number 34.

Assay [16] has as its target T5, hKDR (Homo sapiens, UniProt P35968).
T5 construct: purchased Cerep (LANCE kinase assay platform, contract assay)
Nature of the assay: Cerep LANCE kinase assay hKDR (S1 assay 32). It counts as biochemical. The note with it: for hKDR LANCE IC50/EC50: assay number 32.

The test system of assay [17] is SW480. Nature of the assay: cells. It counts as cell-based. The note with it: basal.
In assay [18] the test system is ECFC/ADSC co-culture cell nuclei number.
Assay [19] relates to endothelial tube formation in co-cultures of ECFCs and ADSCs treated with VEGF. Nature of the assay: cells. It counts as cell-based, human.
Assay [20] deals with HCT116 cells treated with a GSK3β inhibitor. Briefly: cells. The class given is cell-based. The note with it: GSK3b inh pretreated.

T3 sequence (P23443 whole entry): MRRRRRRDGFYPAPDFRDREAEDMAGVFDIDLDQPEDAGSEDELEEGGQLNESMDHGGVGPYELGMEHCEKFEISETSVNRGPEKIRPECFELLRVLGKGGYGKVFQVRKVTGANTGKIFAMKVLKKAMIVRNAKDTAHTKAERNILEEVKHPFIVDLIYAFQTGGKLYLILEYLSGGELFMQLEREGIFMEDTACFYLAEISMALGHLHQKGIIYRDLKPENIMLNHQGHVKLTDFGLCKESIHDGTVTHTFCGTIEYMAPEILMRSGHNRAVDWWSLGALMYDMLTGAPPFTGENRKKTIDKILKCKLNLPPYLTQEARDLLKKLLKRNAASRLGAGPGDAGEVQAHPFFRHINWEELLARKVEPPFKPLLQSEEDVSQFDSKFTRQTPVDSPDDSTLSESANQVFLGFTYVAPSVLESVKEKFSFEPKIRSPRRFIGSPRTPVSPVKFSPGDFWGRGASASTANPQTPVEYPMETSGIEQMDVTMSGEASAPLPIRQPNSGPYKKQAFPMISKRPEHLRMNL
T2 sequence (P36888 27-993): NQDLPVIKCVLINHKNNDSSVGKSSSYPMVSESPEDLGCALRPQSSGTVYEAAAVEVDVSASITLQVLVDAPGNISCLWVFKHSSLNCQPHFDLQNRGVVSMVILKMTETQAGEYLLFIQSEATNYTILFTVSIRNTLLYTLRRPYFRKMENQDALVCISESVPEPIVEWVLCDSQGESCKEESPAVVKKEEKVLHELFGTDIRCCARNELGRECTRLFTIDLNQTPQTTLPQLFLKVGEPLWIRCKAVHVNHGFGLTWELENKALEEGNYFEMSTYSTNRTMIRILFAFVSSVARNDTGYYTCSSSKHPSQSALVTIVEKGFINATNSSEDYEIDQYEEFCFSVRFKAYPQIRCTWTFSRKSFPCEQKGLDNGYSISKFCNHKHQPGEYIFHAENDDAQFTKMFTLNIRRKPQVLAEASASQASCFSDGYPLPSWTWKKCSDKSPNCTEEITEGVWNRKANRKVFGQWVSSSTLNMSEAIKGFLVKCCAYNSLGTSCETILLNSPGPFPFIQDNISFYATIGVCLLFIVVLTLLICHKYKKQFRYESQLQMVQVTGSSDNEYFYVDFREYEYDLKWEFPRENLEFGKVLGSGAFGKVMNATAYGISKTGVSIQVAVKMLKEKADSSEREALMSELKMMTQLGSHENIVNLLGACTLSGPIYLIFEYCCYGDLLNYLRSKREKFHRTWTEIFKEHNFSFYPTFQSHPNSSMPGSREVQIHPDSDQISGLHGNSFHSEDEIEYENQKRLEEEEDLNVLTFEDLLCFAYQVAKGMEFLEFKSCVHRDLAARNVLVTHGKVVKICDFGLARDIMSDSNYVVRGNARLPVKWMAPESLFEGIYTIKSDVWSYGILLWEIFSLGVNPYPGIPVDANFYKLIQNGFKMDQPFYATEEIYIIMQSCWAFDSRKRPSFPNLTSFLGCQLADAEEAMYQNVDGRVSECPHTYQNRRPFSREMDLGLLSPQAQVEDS
T5 sequence (P35968 20-1356): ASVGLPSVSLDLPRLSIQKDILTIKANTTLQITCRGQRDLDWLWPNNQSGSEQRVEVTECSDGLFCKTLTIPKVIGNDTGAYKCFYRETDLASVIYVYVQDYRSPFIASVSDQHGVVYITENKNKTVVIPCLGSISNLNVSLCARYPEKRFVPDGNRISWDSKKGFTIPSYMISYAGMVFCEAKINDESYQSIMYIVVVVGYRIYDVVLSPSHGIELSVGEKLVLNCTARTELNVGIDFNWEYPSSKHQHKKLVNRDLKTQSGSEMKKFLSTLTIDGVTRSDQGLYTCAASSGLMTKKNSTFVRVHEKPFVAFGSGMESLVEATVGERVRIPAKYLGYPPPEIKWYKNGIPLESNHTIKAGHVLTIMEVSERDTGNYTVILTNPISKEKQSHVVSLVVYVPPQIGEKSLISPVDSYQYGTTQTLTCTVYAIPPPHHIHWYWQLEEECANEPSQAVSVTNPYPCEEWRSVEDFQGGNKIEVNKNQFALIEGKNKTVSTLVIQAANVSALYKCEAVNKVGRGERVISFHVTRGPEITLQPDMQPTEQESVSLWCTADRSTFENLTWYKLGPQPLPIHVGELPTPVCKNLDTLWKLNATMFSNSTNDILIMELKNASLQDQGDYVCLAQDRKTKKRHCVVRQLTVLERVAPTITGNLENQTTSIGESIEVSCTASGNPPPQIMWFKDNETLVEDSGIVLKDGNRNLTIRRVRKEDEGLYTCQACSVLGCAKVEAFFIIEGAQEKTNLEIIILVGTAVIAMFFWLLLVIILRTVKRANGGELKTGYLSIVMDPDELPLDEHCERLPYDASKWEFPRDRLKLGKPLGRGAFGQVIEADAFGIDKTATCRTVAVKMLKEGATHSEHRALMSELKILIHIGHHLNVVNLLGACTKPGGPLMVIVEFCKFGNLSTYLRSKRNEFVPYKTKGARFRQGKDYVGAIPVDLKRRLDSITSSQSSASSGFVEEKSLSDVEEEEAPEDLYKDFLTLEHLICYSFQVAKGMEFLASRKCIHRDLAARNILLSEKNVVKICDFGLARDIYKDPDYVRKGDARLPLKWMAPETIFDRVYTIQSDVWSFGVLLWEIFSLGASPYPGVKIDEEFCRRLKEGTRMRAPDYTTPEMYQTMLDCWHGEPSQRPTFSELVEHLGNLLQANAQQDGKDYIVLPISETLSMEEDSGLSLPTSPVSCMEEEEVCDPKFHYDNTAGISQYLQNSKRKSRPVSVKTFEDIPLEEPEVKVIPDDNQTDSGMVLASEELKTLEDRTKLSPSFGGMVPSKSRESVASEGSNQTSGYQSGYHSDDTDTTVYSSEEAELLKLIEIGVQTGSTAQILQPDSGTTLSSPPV
T1 sequence (O60674 whole entry): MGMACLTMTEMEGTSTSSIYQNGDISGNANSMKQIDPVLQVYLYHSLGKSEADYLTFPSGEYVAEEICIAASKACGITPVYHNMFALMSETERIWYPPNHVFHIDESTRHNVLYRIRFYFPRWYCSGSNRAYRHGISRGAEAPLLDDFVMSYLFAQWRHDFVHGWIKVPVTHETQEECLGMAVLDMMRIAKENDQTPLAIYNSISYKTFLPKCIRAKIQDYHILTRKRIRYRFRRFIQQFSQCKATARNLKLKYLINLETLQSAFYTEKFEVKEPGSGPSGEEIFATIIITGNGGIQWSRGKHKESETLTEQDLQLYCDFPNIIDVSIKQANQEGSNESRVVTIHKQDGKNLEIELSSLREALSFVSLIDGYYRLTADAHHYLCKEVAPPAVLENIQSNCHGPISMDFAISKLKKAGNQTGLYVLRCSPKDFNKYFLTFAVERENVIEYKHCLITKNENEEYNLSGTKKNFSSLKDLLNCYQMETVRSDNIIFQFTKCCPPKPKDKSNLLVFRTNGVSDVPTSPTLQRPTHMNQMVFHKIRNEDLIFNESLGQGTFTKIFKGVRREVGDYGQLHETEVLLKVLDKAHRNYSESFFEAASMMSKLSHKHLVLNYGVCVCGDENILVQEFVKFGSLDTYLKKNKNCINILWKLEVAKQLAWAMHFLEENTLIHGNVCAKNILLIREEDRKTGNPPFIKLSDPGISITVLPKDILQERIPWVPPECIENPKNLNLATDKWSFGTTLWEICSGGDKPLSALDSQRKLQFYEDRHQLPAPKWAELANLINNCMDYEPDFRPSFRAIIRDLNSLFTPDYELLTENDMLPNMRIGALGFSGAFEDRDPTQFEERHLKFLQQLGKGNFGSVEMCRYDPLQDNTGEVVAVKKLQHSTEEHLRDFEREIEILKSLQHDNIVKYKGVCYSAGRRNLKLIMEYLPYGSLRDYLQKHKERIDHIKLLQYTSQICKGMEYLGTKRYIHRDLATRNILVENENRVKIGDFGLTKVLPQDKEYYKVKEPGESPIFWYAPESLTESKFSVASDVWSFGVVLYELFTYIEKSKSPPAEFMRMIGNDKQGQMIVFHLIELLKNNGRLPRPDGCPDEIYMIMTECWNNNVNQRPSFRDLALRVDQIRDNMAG
T4 sequence (P49841 whole entry): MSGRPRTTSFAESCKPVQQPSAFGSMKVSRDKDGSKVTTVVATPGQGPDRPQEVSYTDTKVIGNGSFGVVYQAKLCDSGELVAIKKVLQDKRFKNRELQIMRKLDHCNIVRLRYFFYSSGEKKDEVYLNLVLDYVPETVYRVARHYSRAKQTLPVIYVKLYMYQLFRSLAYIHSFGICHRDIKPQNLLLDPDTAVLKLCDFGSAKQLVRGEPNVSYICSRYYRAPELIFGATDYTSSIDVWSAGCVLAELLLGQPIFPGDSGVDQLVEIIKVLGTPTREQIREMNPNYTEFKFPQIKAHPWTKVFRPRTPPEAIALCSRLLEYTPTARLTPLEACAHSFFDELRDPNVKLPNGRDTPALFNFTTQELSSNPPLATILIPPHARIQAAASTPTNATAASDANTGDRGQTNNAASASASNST

`Cc1cc2c(C(C)C)c(O)c(O)c(C=O)c2c(O)c1-c1c(C)cc2c(C(C)C)c(O)c(O)c(C=O)c2c1O` [NCGC00016423-15]: the “hJAK2 LANCE IC50/EC50” value in assay [1] is listed as over 20 µM. For the same molecule, in [2], the “hFLT3 LANCE IC50/EC50” value is recorded as over 20 µM. Also, in [3], the “WntCondMedia_bCatenin C2C12 IC50/EC50” value is on record as 3.4859 µM. For the same molecule, the “mSTC-1 GLP1 Secretion IC50/EC50” value in assay [4] is over 40 µM. In addition, the “Hela CellCycMod PI 2N IC50/EC50” value in assay [5] (2N) is over 10 µM. For the same molecule, in assay [5], the “Hela CellCycMod PI S Phase IC50/EC50” value is recorded as over 10 µM and the “Hela CellCycMod PI Cell Number IC50/EC50” value was found to be 3.7083 µM. Besides, the “Hela CellCycMod PI 4N IC50/EC50” value in [5] (4N) is over 10 µM. Moreover, the “Hela CellCycMod PI MI IC50/EC50” value in assay [5] (MI) is listed as over 10 µM. Also, the “WntCondMedia_Alk Phos C2C12 IC50/EC50” value in assay [6] is recorded as over 20 µM. Further, the “Basal_Viability ATP SNU-C1 IC50/EC50” value in assay [7] (assay number 30) is 0.3538 µM. Besides, the “hNCI-H716 GLP1 Secretion IC50/EC50” value in assay [8] was found to be 23.4306 µM. For the same molecule, in assay [9] (assay number 27), the “Basal_Viability ATP Colo 320 IC50/EC50” value was 1.3794 µM. The “Basal_Viability ATP DLD-1 IC50/EC50” value in [10] (assay number 23) was determined as 0.8345 µM. Moreover, in [11], the “hp70S6K1 LANCE IC50/EC50” value is on record as over 20 µM. Further, the “Basal_Viability ATP RKO IC50/EC50” value in assay [12] (assay number 29) is 0.9156 µM. Also, the “Basal_Viability ATP HCT116 IC50/EC50” value in assay [13] (assay number 25) worked out at 0.7844 µM. The “Basal_Viability ATP HT-29 IC50/EC50” value in assay [14] (assay number 28) worked out at 1.4237 µM. Further, the “hGSK3b LANCE IC50/EC50” value in assay [15] was over 20 µM. Moreover, the “hKDR LANCE IC50/EC50” value in [16] is on record as over 20 µM. For the same molecule, the “Basal_Viability ATP SW480 IC50/EC50” value in assay [17] (assay number 24) is recorded as 0.9563 µM.

Turning to `COC(=O)Nc1nc2ccc(Sc3ccccc3)cc2[nH]1` [NCGC00016855-10], the “IC50/EC50, VEGF_ADSC\ECFC Angio Hoechst NucArea (assay number 3)” value in assay [18] is over 10 µM. For the same molecule, in [1], the “IC50/EC50, hJAK2 LANCE (assay number 33)” value is reported as over 20 µM. In addition, in assay [2], the “IC50/EC50, hFLT3 LANCE (assay number 35)” value is on record as over 20 µM. Further, the “IC50/EC50, WntCondMedia_bCatenin C2C12 (assay number 5)” value in assay [3] came to 4.8413 µM. Besides, the “IC50/EC50, mSTC-1 GLP1 Secretion (assay number 13)” value in [4] (concentration response) is given as over 20 µM. Also, the “IC50/EC50, Hela CellCycMod PI 2N (assay number 14)” value in [5] (2N) was found to be 0.2042 µM. The “IC50/EC50, Hela CellCycMod PI 4N (assay number 16)” value in [5] (4N) is recorded as 0.195 µM. In addition, in assay [5] (Cell Number), the “IC50/EC50, Hela CellCycMod PI Cell Number (assay number 18)” value worked out at 9.7 nM. Moreover, the “IC50/EC50, Hela CellCycMod PI MI (assay number 17)” value in assay [5] (MI) is listed as 0.2276 µM. In assay [5] (S Phase), the “IC50/EC50, Hela CellCycMod PI S Phase (assay number 15)” value was over 10 µM. The “IC50/EC50, WntCondMedia_Alk Phos C2C12 (assay number 6)” value in assay [6] was found to be 0.4382 µM. Besides, the “IC50/EC50, Basal_Viability ATP SNU-C1 (assay number 30)” value in [7] is over 20 µM. Further, in [19], the “IC50/EC50, VEGF_ADSC\ECFC Angio CD31 TubeArea (assay number 2)” value amounted to 0.2067 µM. In addition, in [8] (concentration response), the “IC50/EC50, hNCI-H716 GLP1 Secretion (assay number 12)” value is on record as over 40 µM. The “IC50/EC50, Basal_Viability ATP Colo 320 (assay number 27)” value in assay [9] is on record as over 20 µM. The “IC50/EC50, GSK3b inh pretreated_Viability ATP HCT116 (assay number 26)” value in assay [20] stood at 3 nM. Besides, the “IC50/EC50, Basal_Viability ATP DLD-1 (assay number 23)” value in assay [10] is 0.06726 µM. For the same molecule, the “IC50/EC50, hp70S6K1 LANCE (assay number 31)” value in assay [11] is listed as over 20 µM. Further, the “IC50/EC50, Basal_Viability ATP RKO (assay number 29)” value in assay [12] stood at 1 nM. In [13], the “IC50/EC50, Basal_Viability ATP HCT116 (assay number 25)” value amounted to 1 nM. In [14], the “IC50/EC50, Basal_Viability ATP HT-29 (assay number 28)” value is reported as over 20 µM. For the same molecule, in [15], the “IC50/EC50, hGSK3b LANCE (assay number 34)” value is over 20 µM. In [16], the “IC50/EC50, hKDR LANCE (assay number 32)” value was over 20 µM. In addition, in [17], the “IC50/EC50, Basal_Viability ATP SW480 (assay number 24)” value is over 20 µM.

As for `C[C@@]12C(=O)OC(=O)[C@]1(C)C1CCC2O1` [NCGC00025212-08], in assay [18], the “VEGF_ADSC\ECFC Angio Hoechst NucArea IC50/EC50” value was determined as 8.333 µM. In [1], the “hJAK2 LANCE IC50/EC50” value is listed as over 20 µM. The “hFLT3 LANCE IC50/EC50” value in assay [2] was over 20 µM. Besides, the “WntCondMedia_bCatenin C2C12 IC50/EC50” value in [3] is over 20 µM. Moreover, the “mSTC-1 GLP1 Secretion IC50/EC50” value in assay [4] worked out at 13.7125 µM. Besides, the “Hela CellCycMod PI 2N IC50/EC50” value in assay [5] (2N) was over 10 µM. In assay [5], the “Hela CellCycMod PI S Phase IC50/EC50” value is reported as over 10 µM and the “Hela CellCycMod PI Cell Number IC50/EC50” value came to 1.0094 µM. Also, the “Hela CellCycMod PI 4N IC50/EC50” value in assay [5] (4N) is given as over 10 µM. Also, the “Hela CellCycMod PI MI IC50/EC50” value in assay [5] (MI) is on record as 8.4996 µM. Also, the “WntCondMedia_Alk Phos C2C12 IC50/EC50” value in assay [6] was found to be 1.4897 µM. In addition, the “VEGF_ADSC\ECFC Angio CD31 TubeArea IC50/EC50” value in [19] came to 1.2254 µM. For the same molecule, in assay [8], the “hNCI-H716 GLP1 Secretion IC50/EC50” value is on record as 6.6758 µM. In addition, the “hp70S6K1 LANCE IC50/EC50” value in [11] is recorded as over 20 µM. Also, in assay [15], the “hGSK3b LANCE IC50/EC50” value is over 20 µM. Also, in assay [16], the “hKDR LANCE IC50/EC50” value is given as over 20 µM.
